Results as given in US20240360089A1, “Metabolically Stable HDAC Inhibitors with Trifluoromethylpyruvamide as Metal-Binding Group” (The University of Toledo, priority 2023, published 2024).
Read-outs that look alike come from different tables or passages of the source. Each block holds one compound with its values, some of them ahead of it.

Columns and labels:
HCT116 cells = assay: Growth inhibition / cell viability assay (methylene blue), HCT116; format: cell-based, human
Procedure: Cell feasibility was examined using methylene blue staining. Cells were plated at a rate of 5000/well in 96 well plates (n=3) respectively and treated the next day. Three days after treatment, cells were fixed/stained in methylene blue saturated in 50% ethanol for 30 min at room temperature. Excessive water was used to wash off extra dye from the plates.

[1] = S9 fraction metabolic stability assay (LC-ESI-MS); format: in vitro ADME; details: human liver S9 fraction
Source text: Previous studies established that trifluoromethyl ketones are metabolically unstable and reduced in vivo to trifluoromethyl alcohols (TFMAs). This metabolic reduction caused a major loss in activity. […] It was believed that in TFPAs, the hydrate form of the ketone is stabilized compared to TFMKs, and is therefore less susceptible to reductive metabolism. […] Metabolic stability studies are primarily conducted using liver microsomal assays, as the predominant cytochrome P450 enzymes present in them are responsible for the metabolism of most xenobiotics in the human body. However, P450 transformations are mostly oxidative in nature, precluding their use to assess the stability of ketone drugs against reductive metabolism. […] Thus, using a liver extract containing both cytosol and microsomal enzymes would be more appropriate for this assay. This was accomplished by using the S9 fraction, which is basically the supernatant obtained from centrifugation of hepatocytes at 9000 g and contains both liver cytosol and microsomal enzymes. LC-ESI-MS was used to monitor the reduction of TFPA 60 over time and it was compared with TFMK 91.
A protocol similar to the one previously employed by others using Human Liver S9 fractions instead of liver microsomes was used for the metabolism studies. The assay was initiated by incubating a mixture of the substrate (0.02 mM), buffer (0.1M), and NADPH (1 mM) at 37° C. for ten minutes, followed by addition of the S9 fraction (0.5 mg) to the mixture and gentle mixing. The total volume of the reaction mixture was maintained at 1 mL. […] The reactions in the aliquots were terminated by adding an equal volume of ethyl acetate, mixing thoroughly, and transferring into micro centrifuge tubes. They were vortexed for 2 minutes and then subjected to centrifugation at 10,000×g for 15 minutes to remove the proteins. The top organic layers were extracted and evaporated under reduced pressure. The organic residues from the aliquots were dissolved in methanol first, then diluted 1:1 with water, and analyzed using LC-ESI-MS. A 450 μL aliquot of compound 60 with concentration of 0.02 mM contains 9 nanomoles, which after evaporation, was dissolved in 500 μL of methanol to give 18 μM in concentration of 60. This was diluted 1:1 with water to give a final concentration of 9 μM, which was used for LC-ESI-MS. Similarly, 200 μL of TFMK 91 at a concentration of 0.02 mM contains 4 nanomoles, which after removing ethyl acetate, and dissolving in 250 μL of methanol gives 16 μM concentration of 91. This was diluted 1:1 with water to give 8 μM final concentration for LC-ESI-MS.
The solvent flow rate was 0.2 mL/min, and the sample injection volume was 20 μL. […]

sixty cell lines [2] = assay: NCI 60 cell five-dose assay; format: cell-based; details: Total Growth Inhibition
PARP1 = assay: Western blot analysis of PARP1 cleavage in HCT116 cells; format: cell-based, human; details: HCT116 cells treated for 24 h; measure of caspase dependent cell death
Procedure: FIG. 13: Western blot analysis of PARP1 cleavage. HCT116 cells were treated with compounds 83, 84, and 85 at the indicated concentrations for 24 hr. Western blots were probed with an antibody that recognizes a cleaved form of PARP (Cell Signaling Technology 5626) as a measure of caspase dependent cell death.
To determine whether the compounds herein induced apoptosis, the enzyme Poly (ADP ribose) polymerase 1 (PARP1) was analyzed by western blotting. Caspase-dependent proteolytic cleavage of PARP1 is one of the hall marks of apoptosis and antibodies that specifically recognize the cleavage products are available. […] HCT116 cells were treated with compounds 83, 84, and 85 for 24 h.
NCI-H522 cell pellets obtained were lysed using lysis buffer containing 50 mM Tris (pH 7.4), 150 mM NaCl, 0.5% NP-40, (supplemented with 1 μg/ml aprotinin, 2 μg/ml leupeptin, 1 μg/ml pepstatin A, 1 mM DTT, and […]) for 30 minutes on ice and centrifuged at 13×10^3 g for 25 minutes at 4° C. The protein levels of the obtained lysates were normalized using BCA Protein Assay Kit (Pierce) and separated by SDS-polyacrylamide gel electrophoresis (12.5% acrylamide). Transfer to polyvinylidene difluoride membranes (Millipore) was followed by obstruction of membranes with blocking buffer containing 5% (w/v) non-fat dry milk dissolved in PBST [1×PBS containing 0.05% (v/v) Tween 20] for 1 hour at room temperature. Membranes were then incubated with corresponding primary antibodies overnight at 4° C. The membranes were then washed (3×15 min each) with PBST and incubated with secondary antibodies conjugated to horse-radish peroxidase, obtained from Biorad, and used at a dilution of 1:10,000. Bound antibodies were detected using enhanced chemiluminescence (Biorad).

sixty cell lines [3] = assay: NCI 60 cell one-dose assay; format: cell-based; details: result in words
[4] = Homo sapiens, HCT-116, zinc-binding group screen, growth inhibition, HCT116 cells, maximum concentration of 100 μM, read-out: HCT116 IC50
[5] = Homo sapiens, HCT-116, cap group SAR, HCT116 cell line, maximum concentration of 40 μM, read-out: IC50
[6] = Homo sapiens, HCT-116, read-out: IC50 (μM) HCT116
[7] = zinc-binding group screen, growth inhibition, HCT116 cells, maximum concentration of 100 μM

IC50 (HCT116 cells; [4]): > 100 µM
SMILES: CC(=O)C(=O)NCCCCC(=O)Nc1ccccc1

IC50 (HCT116 cells; [4]): > 100 µM
SMILES: CC(=O)C(=O)NCCCCCC(=O)Nc1ccccc1

IC50 (HCT116 cells; [4]): > 100 µM
SMILES: CC(=O)C(=O)NCCCCCCC(=O)Nc1ccccc1

IC50 (HCT116 cells; [4]): > 100 µM
SMILES: C/C(=N\O)C(=O)NCCCCC(=O)Nc1ccccc1

IC50 (HCT116 cells; [4]): > 100 µM
SMILES: C/C(=N\O)C(=O)NCCCCCC(=O)Nc1ccccc1

IC50 (HCT116 cells; [4]): > 100 µM
SMILES: C/C(=N\O)C(=O)NCCCCCCC(=O)Nc1ccccc1

IC50 (HCT116 cells; [4]): > 100 µM
SMILES: NC(=O)C(=O)NCCCCC(=O)Nc1ccccc1

IC50 (HCT116 cells; [4]): > 100 µM
SMILES: NC(=O)C(=O)NCCCCCC(=O)Nc1ccccc1

IC50 (HCT116 cells; [4]): > 100 µM
SMILES: NC(=O)C(=O)NCCCCCCCC(=O)Nc1ccccc1

IC50 (HCT116 cells; [4]): > 100 µM
SMILES: OC(c1c(F)c(F)c(-n2cc(-c3ccccc3)nn2)c(F)c1F)C(F)(F)F (stereo not shown)

IC50 (HCT116 cells; [4]): > 100 µM
SMILES: OC(O)(c1c(F)c(F)c(-n2cc(-c3ccccc3)nn2)c(F)c1F)C(F)(F)F

IC50 (HCT116 cells; [4]): > 100 µM
SMILES: O=C(CCCCCNC(=O)c1ccc[nH]1)Nc1ccccc1

IC50 (HCT116 cells; [4]): > 100 µM
SMILES: O=C(CCCCNC(=O)c1cc(=O)c(O)co1)Nc1ccccc1

IC50 (HCT116 cells; [4]): > 100 µM
SMILES: O=C(CCCCCNC(=O)c1cc(=O)c(O)co1)Nc1ccccc1

IC50 (HCT116 cells; [4]): > 100 µM
SMILES: O=C(CCCCCCNC(=O)c1cc(=O)c(O)co1)Nc1ccccc1

IC50 (HCT116 cells; [5]): > 40 µM
SMILES: O=C(CCCCCCC(O)C(F)(F)F)Nc1ccccc1 (stereo not shown)

IC50 (HCT116 cells; [6]): 54.4 µM | IC50 (HCT116 cells; [4]): 54.4 µM | HCT116 IC50 (HCT116 cells; [7]): demonstrated antiproliferative activity | melting point: 103 to 108 °C
SMILES: O=C(CCCCCNC(=O)C(O)(O)C(F)(F)F)Nc1ccccc1 [Compound 10b, N-phenyl-6-(3,3,3-trifluoro-2,2-dihydroxypropanamido)hexanamide]

IC50 (HCT116 cells; [6]): 9.14 µM | melting point: 123 to 128 °C
SMILES: O=C(CCCCCCNC(=O)C(O)(O)C(F)(F)F)Nc1ccccc1 [Compound 10c, N-phenyl-7-(3,3,3-trifluoro-2,2-dihydroxypropanamido)heptanamide]

IC50 (HCT116 cells; [5]): 6.11 µM | melting point: 120 to 125 °C
SMILES: COc1cccc(NC(=O)CCCCCCNC(=O)C(O)(O)C(F)(F)F)c1 [Compound 59, N-(3-methoxyphenyl)-7-(3,3,3-trifluoro-2,2-dihydroxypropanamido)heptanamide]

time over which parent M+1 peak did not disappear ([1]; NADPH, 37° C., LC-ESI-MS, aliquots at 1h, 2 hrs): over 2 hours | metabolic reduction to the alcohol ([1]; result in words): no reduction to the alcohol | melting point: 137 to 142 °C
SMILES: O=C(CCCCCCNC(=O)C(O)(O)C(F)(F)F)Nc1nccs1 [Compound 60, N-(thiazol-2-yl)-7-(3,3,3-trifluoro-2,2-dihydroxypropanamido)heptanamide]

SMILES: O=C(CCCCCCNC(=O)C(O)(O)C(F)(F)F)Nc1ccc(Cl)cc1 [Compound 64, N-(4-chlorophenyl)-7-(3,3,3-trifluoro-2,2-dihydroxypropanamido)heptanamide]
TGI (sixty cell lines [2]): 26.92 µM

SMILES: O=C(CCCCCCNC(=O)C(O)(O)C(F)(F)F)Nc1ccc(Br)cc1 [Compound 65, N-(4-bromophenyl)-7-(3,3,3-trifluoro-2,2-dihydroxypropanamido)heptanamide]
TGI (sixty cell lines [2]): 20.89 µM

IC50 (HCT116 cells; [5]): 10.1 µM | melting point: 105 to 110 °C
SMILES: COc1ccccc1NC(=O)CCCCCCNC(=O)C(O)(O)C(F)(F)F [Compound 66, N-(2-methoxyphenyl)-7-(3,3,3-trifluoro-2,2-dihydroxypropanamido)heptanamide]

IC50 (HCT116 cells; [5]): 29.9 µM | melting point: 143 to 148 °C
SMILES: O=C(CCCCCCNC(=O)C(O)(O)C(F)(F)F)Nc1nc(-c2ccccc2)c(-c2ccccc2)s1 [Compound 68, N-(4,5-diphenylthiazol-2-yl)-7-(3,3,3-trifluoro-2,2-dihydroxypropanamido)heptanamide]

SMILES: O=C(CCCCCCNC(=O)C(O)(O)C(F)(F)F)Nc1ccc(-c2ccccc2)cc1 [Compound 69, N-([1,1′-biphenyl]-4-yl)-7-(3,3,3-trifluoro-2,2-dihydroxypropanamido)heptanamide]
TGI (sixty cell lines [2]): 15.14 µM

IC50 (HCT116 cells; [5]): 14.5 µM | melting point: 108 to 113 °C
SMILES: O=C(CCCCCCNC(=O)C(O)(O)C(F)(F)F)Nc1ccccc1Br [Compound 75, N-(2-bromophenyl)-7-(3,3,3-trifluoro-2,2-dihydroxypropanamido)heptanamide]

SMILES: O=C(CCCCCCNC(=O)C(O)(O)C(F)(F)F)Nc1ncc(-c2ccc(Br)cc2)s1 [Compound 85, N-(5-(4-bromophenyl)thiazol-2-yl)-7-(3,3,3-trifluoro-2,2-dihydroxypropanamido)heptanamide]
PARP1 cleavage (cleaved PARP1) (PARP1): Dose-dependent elevation of cleaved PARP1 was detectable | cytostatic / cytotoxic activity in NCI 60 assays (sixty cell lines [3]): cytotoxic effects | TGI (sixty cell lines [2]): 11.4 µM

melting point: 145 to 150 °C
SMILES: O=C(CCCCCCNC(=O)C(O)(O)C(F)(F)F)Nc1ncc(-c2ccc(O)cc2)s1 [Compound 86, N-(5-(4-hydroxyphenyl)thiazol-2-yl)-7-(3,3,3-trifluoro-2,2-dihydroxypropanamido) heptanamide]

IC50 (HCT116 cells; [5]): 4.05 µM | melting point: 138 to 143 °C
SMILES: CCOc1ccc(-c2cnc(NC(=O)CCCCCCNC(=O)C(O)(O)C(F)(F)F)s2)cc1 [Compound 87, N-(5-(4-ethoxyphenyl)thiazol-2-yl)-7-(3,3,3-trifluoro-2,2-dihydroxypropanamido)heptanamide]

HCT116 IC50 (HCT116 cells; [7]): inactive
SMILES: O=C(CCCCCCCNC(=O)c1cc(=O)c(O)co1)Nc1ccccc1 [Compound 89]

IC50 (HCT116 cells; cap group SAR, HCT116 cell line, maximum concentration of 40 μM): inactive
SMILES: O=C(CCCCCCNC(=O)C(O)C(F)(F)F)Nc1nccs1 (stereo not shown) [Compound 92]

IC50 (HCT116 cells; [4]): > 100 µM
SMILES: O=C(CCCCCCCNC(=O)c1cc(=O)c(O)co1)Nc1ccccc1 [drawing 33]

IC50 (HCT116 cells; [5]): > 40 µM
SMILES: O=C(CCCCCCNC(=O)C(O)C(F)(F)F)Nc1nccs1 (stereo not shown) [drawing 78]
